Reference: ChEMBL document CHEMBL5726062, “Substituted oxopyridine derivatives” (2019)

Target: Coagulation factor XI (Homo sapiens, UniProt P03951)
Assay: Measurement of FXIa Inhibition: The factor XIa inhibition of the substances according to the invention is determined using a biochemical test system which utilizes the reaction of a peptidic factor XIa substrate to determine the enzymatic activity of human factor XIa. Here, factor XIa cleaves from the peptic factor XIa substrate the C-terminal aminomethylcoumarin (AMC), the fluorescence of which is measured. The determinations are carried out in microtitre plates.Test substances are dissolved in dimethyl sulphoxide and serially diluted in dimethyl sulphoxide (3000 μM to 0.0078 μM; resulting final concentrations in the test: 50 μM to 0.00013 μM). 1 μl of the diluted substance solutions is placed into each of the wells of white microtitre plates from Greiner (384 wells). 20 μl of assay buffer (50 mM of Tris/HCl pH 7.4; 100 mM of sodium chloride; 5 mM of calcium chloride; 0.1% of bovine serum albumin) and 20 μl of factor XIa from Kordia (0.45 nM in assay buffer) are then added successively. After […] of incubation, the enzyme reaction is started by addition of 20 μl of the factor XIa substrate Boc-Glu(OBzl)-Ala-Arg-AMC dissolved in assay buffer (10 μM in assay buffer) from Bachem, the mixture is incubated at room temperature (22° C.) for 30 min and fluorescence is then measured (excitation: 360 nm, emission: 460 nm). […]

Sequence of Coagulation factor XI (P03951 19-387 limits assumed): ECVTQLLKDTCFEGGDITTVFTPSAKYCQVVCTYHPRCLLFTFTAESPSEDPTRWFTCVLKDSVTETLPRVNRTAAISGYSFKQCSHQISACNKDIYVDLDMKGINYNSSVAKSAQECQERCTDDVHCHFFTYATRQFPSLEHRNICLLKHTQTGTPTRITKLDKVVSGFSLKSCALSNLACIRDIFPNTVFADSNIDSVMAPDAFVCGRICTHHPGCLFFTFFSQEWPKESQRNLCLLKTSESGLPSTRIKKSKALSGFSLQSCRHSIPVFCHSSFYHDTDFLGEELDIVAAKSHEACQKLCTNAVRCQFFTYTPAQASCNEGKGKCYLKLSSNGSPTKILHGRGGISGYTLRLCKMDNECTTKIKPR
Sequence of Coagulation factor XI (P03951 388-625 limits assumed): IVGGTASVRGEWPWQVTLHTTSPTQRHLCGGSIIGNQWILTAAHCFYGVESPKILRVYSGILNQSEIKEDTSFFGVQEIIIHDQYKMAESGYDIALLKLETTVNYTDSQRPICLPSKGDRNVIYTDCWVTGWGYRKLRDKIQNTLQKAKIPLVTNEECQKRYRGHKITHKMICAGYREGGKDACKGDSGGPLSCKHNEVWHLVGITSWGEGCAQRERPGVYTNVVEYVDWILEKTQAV

IC50: 12 nM
SMILES: CNC(=O)c1ccc(NC(=O)C(Cc2cnco2)n2cc(OC)c(-c3cc(Cl)ccc3C#N)cc2=O)cn1 (racemic)
